Where two headings read alike, the source gives them in different places.
Molecular target: T1, Tau P301L (Homo sapiens, UniProt P10636, P618L)
T1 construct: expressed in transfected cells
Experiment: In vitro tau degradation assay in CHOK1 Tau P301L cells (sarkosyl insoluble tau, WES)
Assay type: cell-based
Conditions: CHO-K1, relative to DMSO doxycycline control, read-out: Tau Protein Degradation effect at 1 μM
Method in brief: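 T-Rex CHOK1 clone D1 with doxycycline-inducible (1 μg/ml) Tau P301L treated 48 h with compound at 1 μM, doxycycline removed for the final 24 h. Sarkosyl-insoluble tau quantified by WES capillary electrophoresis with Tau1 antibody, expressed relative to DMSO doxycycline control and binned as ≤50% or >50% remaining.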

[1] = CHOK1 Tau P301L cells, remaining tau in sarkosyl insoluble pellet, 48 hours with test compound at 1 μM, doxycycline removed for last 24 hours
[2] = remaining tau protein in sarkosyl insoluble pellet, CHOK1 Tau P301L cells treated 48 hours with test compound at 1 μM, doxycycline removed for the last 24 hours

T1 sequence (P10636 1-441 isoform P10636-8 P301L): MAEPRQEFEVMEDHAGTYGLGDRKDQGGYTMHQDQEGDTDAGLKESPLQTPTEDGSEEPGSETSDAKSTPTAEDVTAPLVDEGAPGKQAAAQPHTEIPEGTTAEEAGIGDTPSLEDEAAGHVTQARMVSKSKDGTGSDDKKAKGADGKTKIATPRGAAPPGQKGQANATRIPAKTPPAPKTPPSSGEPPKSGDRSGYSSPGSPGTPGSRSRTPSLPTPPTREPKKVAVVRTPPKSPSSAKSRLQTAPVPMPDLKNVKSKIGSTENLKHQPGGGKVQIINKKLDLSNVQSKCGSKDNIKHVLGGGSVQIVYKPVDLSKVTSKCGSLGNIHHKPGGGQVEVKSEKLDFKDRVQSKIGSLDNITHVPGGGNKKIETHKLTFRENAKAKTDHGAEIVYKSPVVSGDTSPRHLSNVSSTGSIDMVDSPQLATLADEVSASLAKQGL

SMILES	remaining activity at 1 µM [1] [%]	remaining activity at 1 µM [2] [%]
Cn1c2ccncc2c2ccc(C3CCN([C@H]4C[C@@H](OC5CCN(CCOc6ccc7c(c6)C(=O)N(C6CCC(=O)NC6=O)C7=O)CC5)C4)CC3)cc21 (stereo partly drawn) [Compound 515, 2-(2,6-dioxopiperidin-3-yl)-5-(2-(4-((1s,3s)-3-(4-(5-methyl-5H-pyrido[4,3-b]indol-7-yl)piperidin-1-yl)cyclobutoxy)piperidin-1-yl)ethoxy) isoindoline-1,3-dione]	–	< 50
Cn1c2ccncc2c2ccc(-c3ccc(O[C@H]4C[C@H](CN5CC6(CN(CCOc7ccc8c(c7)C(=O)N(C7CCC(=O)NC7=O)C8=O)C6)C5)C4)nc3)cc21 (stereo partly drawn) [Compound 386, 2-(2,6-dioxo-3-piperidyl)-5-[2-[2-[[3-[[5-(5-methylpyrido[4,3-b]indol-7-yl)-2-pyridyl]oxy]cyclobutyl]methyl]-2,6-diazaspiro[3.3]heptan-6-yl]ethoxy]isoindoline-1,3-dione diformate]	–	< 50
Cn1c2ccncc2c2ccc(C3CCN(CCC4CCN(CC5CCN(c6ccc7c(c6)C(=O)N(C6CCC(=O)NC6=O)C7=O)CC5)CC4)CC3)cc21 (stereo not drawn) [Compound 502, 2-(2,6-dioxopiperidin-3-yl)-5-(4-((4-(2-(4-(5-methyl-5H-pyrido[4,3-b]indol-7-yl)piperidin-1-yl)ethyl)piperidin-1-yl)methyl)piperidin-1-yl)isoindoline-1,3-dione]	–	< 50
O=C1CCC(N2C(=O)c3ccc(N4CCN(CCC5CCN(c6ncc(-c7ccc8c9cnccc9n(C(F)F)c8c7)cc6C(F)(F)F)CC5)CC4)cc3C2=O)C(=O)N1 (stereo not drawn) [Compound 489, 5-[4-[2-[1-[5-[5-(difluoromethyl)pyrido[4,3-b]indol-7-yl]-3-(trifluoromethyl)-2-pyridyl]-4-piperidyl]ethyl]piperazin-1-yl]-2-(2,6-dioxo-3-piperidyl)isoindoline-1,3-dione trifluroacetate]	–	< 50
O=C1CCC(N2C(=O)c3ccc(N4CCN(CCC5CCN(c6ncc(-c7ccc8c9cnccc9n(C(F)F)c8c7)cn6)CC5)CC4)cc3C2=O)C(=O)N1 (stereo not drawn) [Compound 514, 5-(4-(2-(1-(5-(5-(difluoromethyl)-5H-pyrido[4,3-b]indol-7-yl)pyrimidin-2-yl)piperidin-4-yl)ethyl)piperazin-1-yl)-2-(2,6-dioxopiperidin-3-yl)isoindoline-1,3-dione]	–	< 50
Cc1ncsc1-c1ccc([C@H](C)NC(=O)[C@@H]2C[C@@H](O)CN2C(=O)[C@@H](c2cc(OCCN3CCC(O[C@H]4C[C@H](Oc5ccc(-c6ccc7c8cnccc8n(C)c7c6)cn5)C4)CC3)no2)C(C)C)cc1 [Compound 398, (2S,4R)-4-hydroxy-1-((R)-3-methyl-2-(3-(2-(4-((1r,3R)-3-((5-(5-methyl-5H-pyrido[4,3-b]indol-7-yl)pyridin-2-yl)oxy)cyclobutoxy)piperidin-1-yl)ethoxy)isoxazol-5-yl)butanoyl)-N-((S)-1-(4-(4-methylthiazol-5-yl)phenyl)ethyl) pyrrolidine-2-carboxamide]	–	< 50
Cn1c2ccncc2c2ccc(-c3ccc(N4CC(OC5CCN(CCOc6ccc7c(c6)C(=O)N(C6CCC(=O)NC6=O)C7=O)CC5)C4)nc3)cc21 (stereo not drawn) [Compound 416, 2-(2,6-dioxopiperidin-3-yl)-5-[2-(4-[[1-(5-[5-methylpyrido[4,3-b]indol-7-yl]pyridin-2-yl)azetidin-3-yl]oxy]piperidin-1-yl)ethoxy]isoindole-1,3-dione]	–	< 50
O=C1CCC(N2C(=O)c3ccc(N4CCN(CC5CCN(c6ncc(-c7ccc8c9cnccc9n(C(F)F)c8c7)cc6C(F)(F)F)CC5)CC4)cc3C2=O)C(=O)N1 (stereo not drawn) [Compound 494, 5-(4-((1-(5-(5-(difluoromethyl)-5H-pyrido[4,3-b]indol-7-yl)-3-(trifluoromethyl)pyridin-2-yl)piperidin-4-yl)methyl)piperazin-1-yl)-2-(2,6-dioxopiperidin-3-yl)isoindoline-1,3-dione]	–	< 50
Cn1c2ccncc2c2ccc(-c3ccc(O[C@H]4C[C@H](OC5CCN(CCCN6CC(Oc7ccc8c(c7)C(=O)N(C7CCC(=O)NC7=O)C8=O)C6)CC5)C4)nc3)cc21 (stereo partly drawn) [Compound 388, 2-(2,6-dioxopiperidin-3-yl)-5-((1-(3-(4-((1r,3r)-3-((5-(5-methyl-5H-pyrido[4,3-b]indol-7-yl)pyridin-2-yl)oxy)cyclobutoxy)piperidin-1-yl)propyl)azetidin-3-yl)oxy) isoindoline-1,3-dione]	–	< 50
Cn1c2ccncc2c2ccc(-c3ccc(O[C@H]4C[C@H](CN5CCC(CCCCCOc6ccc7c(c6)C(=O)N(C6CCC(=O)NC6=O)C7=O)CC5)C4)nc3)cc21 (stereo partly drawn) [Compound 393, 2-(2,6-dioxopiperidin-3-yl)-5-((5-(1-(((1r,3r)-3-((5-(5-methyl-5H-pyrido[4,3-b]indol-7-yl)pyridin-2-yl)oxy)cyclobutyl)methyl)piperidin-4-yl)pentyl)oxy) isoindoline-1,3-dione]	–	< 50

Next, values leading:

remaining activity at 1 µM [1] [%]	remaining activity at 1 µM [2] [%]	SMILES
< 50	–	O=C1CCC(N2Cc3c(cccc3N3CCN(CCC4CCN(c5ncc(-c6ccc7c8cnccc8n(C(F)F)c7c6)cc5F)CC4)CC3)C2=O)C(=O)N1 (stereo not drawn) [Compound 682, 3-(4-(4-(2-(1-(5-(5-(difluoromethyl)-5H-pyrido[4,3-b]indol-7-yl)-3-fluoropyridin-2-yl)piperidin-4-yl)ethyl)piperazin-1-yl)-1-oxoisoindolin-2-yl)piperidine-2,6-dione]
–	< 50	O=C1CCC(N2C(=O)c3ccc(N4CCN(CCC5CCN(c6cc(Nc7ccc8ncccc8n7)ccn6)CC5)CC4)cc3C2=O)C(=O)N1 (stereo not drawn) [Compound 583, 2-(2,6-dioxo-3-piperidyl)-5-[4-[2-[1-[4-(1,5-naphthyridin-2-ylamino)-2-pyridyl]-4-piperidyl]ethyl]piperazin-1-yl]isoindoline-1,3-dione]
< 50	–	COc1ccc2nc(/C=C/C=C/c3ccc(OCCOCCOc4ccc5c(c4)C(=O)N(C4CCC(=O)NC4=O)C5=O)nc3)sc2c1 (stereo not drawn) [Compound 626, 2-(2,6-dioxopiperidin-3-yl)-5-(2-(2-((5-((1E,3E)-4-(6-methoxybenzo[d]thiazol-2-yl)buta-1,3-dien-1-yl)pyridin-2-yl)oxy)ethoxy)ethoxy) isoindoline-1,3-dione]
< 50	–	O=C1CCC(N2C(=O)c3ccc(N4CCN(CCOCCN5CCCc6cc(-c7ccc8c9cnccc9n(C(F)F)c8c7)cc(F)c65)CC4)cc3C2=O)C(=O)N1 (stereo not drawn) [Compound 611, 5-(4-(2-(2-(6-(5-(difluoromethyl)-5H-pyrido[4,3-b]indol-7-yl)-8-fluoro-3,4-dihydroquinolin-1(2H)-yl)ethoxy)ethyl)piperazin-1-yl)-2-(2,6-dioxopiperidin-3-yl)isoindoline-1,3-dione]
–	< 50	O=C1CCC(N2C(=O)c3ccc(N4CCN(CCC5CCN(c6ccnc(Nc7ccc8ncccc8n7)c6)CC5)CC4)cc3C2=O)C(=O)N1 (stereo not drawn) [Compound 656, 5-(4-(2-(1-(2-((1,5-naphthyridin-2-yl)amino)pyridin-4-yl)piperidin-4-yl)ethyl)piperazin-1-yl)-2-(2,6-dioxopiperidin-3-yl)isoindoline-1,3-dione]
< 50	–	O=C1CCC(N2C(=O)c3cc(F)c(OCCN4CCC(O[C@H]5C[C@@H](N6CCC(c7ccc8c9cnccc9n(C(F)F)c8c7)CC6)C5)CC4)cc3C2=O)C(=O)N1 (stereo partly drawn) [Compound 644]
–	< 50	Cc1ccc(-n2ccc3cc(N4CCC(CCN5CCN(c6ccc7c(c6)C(=O)N(C6CCC(=O)NC6=O)C7=O)CC5)CC4)ncc32)nc1 (stereo not drawn) [Compound 555, 2-(2,6-dioxopiperidin-3-yl)-5-(4-(2-(1-(1-(5-methylpyridin-2-yl)-1H-pyrrolo[2,3-c]pyridin-5-yl)piperidin-4-yl)ethyl)piperazin-1-yl)isoindoline-1,3-dione]
> 50	–	O=C1CCC(N2C(=O)c3ccc(N4CCN(C5CC6(CCN(c7ncc(-c8ccc9c%10cnccc%10n(C(F)F)c9c8)cc7F)CC6)C5)CC4)cc3C2=O)C(=O)N1 (stereo not drawn) [Compound 613, 5-(4-(7-(5-(5-(difluoromethyl)-5H-pyrido[4,3-b]indol-7-yl)-3-fluoropyridin-2-yl)-7-azaspiro[3.5]nonan-2-yl)piperazin-1-yl)-2-(2,6-dioxopiperidin-3-yl)isoindoline-1,3-dione]
–	< 50	O=C1CCC(N2C(=O)c3ccc(N4CCN(CCC5CC6(C5)CN(c5ccc(-c7ccc8c(c7)[nH]c7ccncc78)cn5)C6)CC4)cc3C2=O)C(=O)N1 (stereo not drawn) [Compound 599, 5-(4-(2-(2-(5-(5H-pyrido[4,3-b]indol-7-yl)pyridin-2-yl)-2-azaspiro[3.3]heptan-6-yl)ethyl)piperazin-1-yl)-2-(2,6-dioxopiperidin-3-yl)isoindoline-1,3-dione]
–	< 50	Cc1cc(Nc2ccc3nc(N4CCC(CCN5CCN(c6ccc7c(c6)C(=O)N(C6CCC(=O)NC6=O)C7=O)CC5)CC4)ccc3n2)ccn1 (stereo not drawn) [Compound 584, 2-(2,6-dioxopiperidin-3-yl)-5-(4-(2-(1-(6-((2-methylpyridin-4-yl)amino)-1,5-naphthyridin-2-yl)piperidin-4-yl)ethyl)piperazin-1-yl)isoindoline-1,3-dione]
–	< 50	O=C1CCC(N2C(=O)c3ccc(N4CCN(CCC5CCN(CCCn6c7ccccc7c7cnccc76)CC5)CC4)cc3C2=O)C(=O)N1 (stereo not drawn) [Compound 527, 5-(4-(2-(1-(3-(5H-pyrido[4,3-b]indol-5-yl)propyl)piperidin-4-yl)ethyl)piperazin-1-yl)-2-(2,6-dioxopiperidin-3-yl)isoindoline-1,3-dione]

— patent US11912699B2, “Tau-protein targeting compounds and associated” (Arvinas Operations, Inc., priority 2019, dated 2024)
